12 molecules from US5444083A, “Pyrrolidine compound and pharmaceutical use” (Eisai Co., Ltd., priority 1989, dated 1995) can be followed below.

Structures are written as SMILES. Where a name gives a salt, the structure may show the parent alone.

Assay [1] addresses T1, D1 receptor (striatum of rat) (Rattus norvegicus, UniProt P18901).
T1 construct: The striatum of rats were excised, homogenized; from tissue; host or cells: rat striatum, synaptosome fraction
The assay is described as follows: specific binding of D1 receptors in the striatum of rat. The conditions noted are these: displacement of 3H-Sch23390 0.3 nM, rat striatum synaptosome fraction, 37 degree centigrade, 15 minutes. The procedure: (§1) 1. Test on specific binding of D1 and D2 receptors in the striatum of rat
(§2) The striatum of rats were excised, homogenized with a 0.05M Tris Fuffer and then centrifuged at 20,000×g to collect its synaptosome fraction. The sediment was washed several times with a 0.25M Tris Buffer and suspended in a 0.05M Tris Buffer containing 120 mM of Nacl, 5 mM of KCl, 2 mM of CaCls and 1 mM of MgCl2. The suspension was, in portions, placed in the frozen state at minus 80 degree centigrade. ^3 H-Sch23390 having a final concentration of 0.3 nM in the case of D1 and ^3 H-Spiperone having a finish concentration of 0.2 nM in the case of D2 were added to the portions of the suspension, respectively, together with a specimen. The mixtures were incubased at 37 degree centigrade for 15 minutes. Having been filtrated with a Whatman GF/B filter, they were examined with a liquid scintillation counter.

The test system of assay [2] is anesthetized dogs. The assay is described as follows: Action cardiohemodynamics in anesthetized dogs. Format: in vivo, Mongrel dogs. As to conditions: Canis lupus familiaris, iv, intravenously, read-out: decrease of mean blood pressure; for inhibition in vivo at 0.001 mg/kg: 1 microgram/kg; for inhibition in vivo at 0.01 mg/kg: 10 microgram/kg; for inhibition in vivo at 0.003 mg/kg: 3 microgram/kg. The procedure:
2. Action cardiohemodynamics in anesthetized dogs
Mongrel dogs of about 10 kg were anesthetized with the intravenous administration of 20 mg/kg of thiopental sodium. They were then treated by introducing oxygen gas, nitrous oxide gas and enflurane in combination through an endotracheal tube inserted thereinto to conduct artificial respiration and with an Acoma artificial respirator ARF-850E (trademark) and an Acoma anesthesia apparatus EM-A (trademark) to keep the anesthesia still effective. The aortic pressure and the internal pressure of the left ventricle were determined with a micro-tip catheter pressure transducers, MPC-500, tradename of Miller, inserted at the femoral arteries. The renal blood […] was determined by exposing by laparotomy the renal artery to a probe of an electromagnetic blood flowmeter, MFV-2100, tradename of Nihon Kohden Corp. Results are caught with a polygraph system, RM-6000, tradename of Nihon Kohden Corp.
The specimen was dissolved in a 0.9% saline solution and administered at the brachial vein through a catheter inserted thereinto. When the administration was made at the duodenum, the duodenum was exposed by the median incision to a catheter inserted thereinto. Results are shown in terms of an increase in percent of the renal blood flow and a decrease in percent of the mean blood pressure when the test compound was administered.

In assay [3] the target is T2, D2 receptor (striatum of rat) (Rattus norvegicus, UniProt P61169).
T2 construct: The striatum of rats were excised, homogenized; from tissue; host or cells: rat striatum, synaptosome fraction
Put plainly: specific binding of D2 receptors in the striatum of rat. The conditions noted are these: displacement of 3H-Spiperone 0.2 nM, rat striatum synaptosome fraction, 37 degree centigrade, 15 minutes. As to the method:
as §1, §2
(In general: Loss of bound radioactivity is the signal in a displacement assay; it reports binding, not function.)

T2 sequence (P61169 whole entry): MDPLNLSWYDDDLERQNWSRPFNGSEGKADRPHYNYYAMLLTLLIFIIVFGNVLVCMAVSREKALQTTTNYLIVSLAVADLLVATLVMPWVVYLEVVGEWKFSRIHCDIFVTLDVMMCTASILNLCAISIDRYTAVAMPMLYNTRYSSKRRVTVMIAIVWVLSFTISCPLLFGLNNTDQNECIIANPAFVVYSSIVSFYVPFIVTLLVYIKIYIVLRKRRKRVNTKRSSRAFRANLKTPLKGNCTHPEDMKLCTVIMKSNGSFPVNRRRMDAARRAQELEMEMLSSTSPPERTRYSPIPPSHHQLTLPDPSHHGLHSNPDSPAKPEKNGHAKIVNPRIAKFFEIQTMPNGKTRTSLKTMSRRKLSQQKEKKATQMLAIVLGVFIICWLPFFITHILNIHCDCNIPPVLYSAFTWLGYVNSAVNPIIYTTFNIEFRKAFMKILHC
T1 sequence (P18901 whole entry): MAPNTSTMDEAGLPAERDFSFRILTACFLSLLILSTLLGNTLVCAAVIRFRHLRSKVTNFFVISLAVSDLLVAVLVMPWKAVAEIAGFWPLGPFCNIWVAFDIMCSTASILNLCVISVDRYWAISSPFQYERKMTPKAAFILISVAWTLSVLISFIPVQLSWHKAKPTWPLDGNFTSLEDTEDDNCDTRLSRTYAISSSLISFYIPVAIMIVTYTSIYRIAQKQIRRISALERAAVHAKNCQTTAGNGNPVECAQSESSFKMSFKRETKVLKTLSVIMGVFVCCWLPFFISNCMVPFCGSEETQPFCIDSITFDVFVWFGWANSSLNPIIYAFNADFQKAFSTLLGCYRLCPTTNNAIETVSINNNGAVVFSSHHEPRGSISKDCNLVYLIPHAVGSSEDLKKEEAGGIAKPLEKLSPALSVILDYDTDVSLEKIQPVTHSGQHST

As for `Oc1ccc([C@@H]2CNC[C@H]2Cc2cc(F)cc(F)c2O)cc1O` (relative stereo) [Compound K, trans-3-(3,5-difluoro-2-hydroxyphenyl)-methyl-4-(3,4-dihydroxyphenyl)-pyrrolidine], the IC50 (as a rule, the concentration needed to halve the response being measured) in assay [1] is 130 nM; in assay [3], 2000 nM. Besides, in assay [2], the inhibition in vivo at 0.001 mg/kg amounted to 17%.

For `Cc1ccsc1[C@@H]1CNC[C@H]1c1ccc(O)c(O)c1` (relative stereo) [Compound E, trans-3-(3,4-dihydroxyphenyl)-4-(3-methylthienyl)pyrrolidine hydrobromide], the IC50 is 170 nM in assay [1] and 90000 nM in assay [3]. Also, the inhibition in vivo at 0.01 mg/kg in assay [2] was found to be 15%.

For `Cc1ccccc1[C@@H]1CNC[C@H]1c1ccc(O)c(O)c1` (relative stereo) [Compound B, trans-3-(3,4-dihydroxyphenyl)-4-(2-methylphenyl)pyrrolidine hydrobromide], the IC50 in assay [1] was 600 nM; in assay [3], 10000 nM. The inhibition in vivo at 0.01 mg/kg in assay [2] was 23%.

For `Oc1ccc([C@@H]2CNC[C@H]2c2cccc(O)c2Cl)cc1O` (relative stereo) [Compound D, trans-3-(2-chloro-3-hydroxyphenyl)-4-(3,4-dihydroxyphenyl)pyrrolidine hydrobromide], the IC50 in assay [1] stood at 380 nM; in assay [3], 5300 nM. For the same molecule, the inhibition in vivo at 0.003 mg/kg in assay [2] is 15%.

For the molecule `Cc1ccsc1[C@H]1CNC[C@H]1c1ccc(O)c(O)c1` (relative stereo) [Compound F, cis-3-(3,4-dihydroxyphenyl)-4-(3-methylthienyl)pyrrolidine hydrobromide], the IC50 in assay [1] turned out to be 9000 nM; in assay [3], 50000 nM.

Take `Oc1ccc([C@@H]2CNC[C@H]2Cc2c(O)ccc(Cl)c2O)cc1O` (relative stereo) [Compound J, trans-3-(3-chloro-2,6-dihydroxyphenyl)-methyl-4-(3,4-dihydroxyphenyl)-pyrrolidine]: the IC50 came out at 130 nM in assay [1] and 1000 nM in assay [3]. Moreover, the inhibition in vivo at 0.001 mg/kg in assay [2] came to 22%.

As for `Oc1ccc([C@@H]2CNC[C@H]2Cc2c(O)cccc2O)cc1O` (relative stereo) [Compound I, trans-3-(2,6-dihydroxyphenyl)methyl-4-(3,4-dihydroxyphenyl)pyrrolidine], the IC50 was 200 nM in assay [1] and 70 nM in assay [3]. In assay [2], the inhibition in vivo at 0.003 mg/kg turned out to be 29%.

`Oc1ccc([C@@H]2CNC[C@H]2Cc2cc(Cl)ccc2O)cc1O` (relative stereo) [Compound H, trans-3-(3-chloro-6-hydroxyphenyl)-methyl-4-(3,4-dihydroxyphenyl)-pyrrolidine]: the IC50 in assay [1] and in assay [3] was 300 nM each time. Moreover, the inhibition in vivo at 0.003 mg/kg in assay [2] amounted to 15%.

Consider `Oc1ccc([C@@H]2CNC[C@H]2c2cccc3ccsc23)cc1O` (relative stereo) [Compound G, trans-3-(7-benzothiophenyl)-4-(3,4-dihydroxyphenyl)pyrrolidine hydrobromide], for which the IC50 in assay [1] came to 400 nM; in assay [3], 6000 nM.

Consider `Oc1ccc([C@@H]2CNC[C@H]2c2ccccc2)cc1O` (relative stereo) [Compound A, trans-3-(3,4-dihydroxyphenyl)-4-phenylpyrrolidine hydrobromide], for which the concentration for half-maximal inhibition (IC50) in assay [1] worked out at 4800 nM; in assay [3], 88000 nM.

In the case of `Oc1ccc([C@@H]2CNC[C@H]2c2ccccc2Cl)cc1O` (relative stereo) [Compound C, trans-3-(2-chlorophenyl)-4-(3,4-dihydroxyphenyl)pyrrolidine hydrobromide], the results for the IC50 in assay [1] and in assay [3] were 600 nM and 7000 nM, respectively. In addition, the inhibition in vivo at 0.01 mg/kg in assay [2] is 21%.

In the case of `Oc1ccc([C@@H]2CNC[C@H]2Cc2cccc(F)c2O)cc1O` (relative stereo) [Compound L, trans-3-(3-fluoro-2-hydroxyphenyl)methyl-4-(3,4-dihydroxyphenyl)pyrrolidine], the IC50 worked out at 200 nM in assay [1] and 5000 nM in assay [3]. Also, in assay [2], the inhibition in vivo at 0.003 mg/kg is 21%.
